According to BindingDB's records for doi:10.7270/Q2B27SRF (Broad Institute, 2010):

Target: Serine/threonine-protein kinase 33 (Homo sapiens, UniProt Q9BYT3)
Test: STK33 kinase inhibitors, dose response, biochemical, luminescence, cell-free, retest (AID 2821)

Serine/threonine-protein kinase 33, sequence (Q9BYT3 whole entry): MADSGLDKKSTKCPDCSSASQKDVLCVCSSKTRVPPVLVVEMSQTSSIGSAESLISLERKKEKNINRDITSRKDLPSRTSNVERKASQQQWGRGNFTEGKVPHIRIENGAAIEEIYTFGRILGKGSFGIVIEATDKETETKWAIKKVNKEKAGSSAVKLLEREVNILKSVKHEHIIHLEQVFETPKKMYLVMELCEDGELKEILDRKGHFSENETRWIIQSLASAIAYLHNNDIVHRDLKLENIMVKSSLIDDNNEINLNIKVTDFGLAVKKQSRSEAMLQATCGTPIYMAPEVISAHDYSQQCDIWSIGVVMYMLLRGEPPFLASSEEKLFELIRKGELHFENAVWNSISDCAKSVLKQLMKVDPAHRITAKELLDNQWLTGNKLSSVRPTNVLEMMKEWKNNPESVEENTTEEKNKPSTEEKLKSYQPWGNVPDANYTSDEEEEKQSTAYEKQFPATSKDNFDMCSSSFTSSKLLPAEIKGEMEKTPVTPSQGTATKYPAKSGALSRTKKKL

SMILES	EC50 [µM]
CC[C@H](CO)Nc1nc(Nc2cccc(Cl)c2)c2ncn(C(C)C)c2n1 [(R)-2-(6-(3-chlorophenylamino)-9-isopropyl-9H-purin-2-ylamino)butan-1-ol]	2.49
CCCCCCCCCCC[N+](C)(C)CC/C=C1/c2ccccc2Sc2ccc(Cl)cc21 [MLS001165405]	> 120
Cc1cc(N2CCN(C)CC2)nc2ccc(NC(=O)c3ccc(Br)o3)cc12 [SMR000022431]	10.3
COc1ccc(C(=O)ON=C(C)c2cccs2)cc1 [MLS000544771]	29.1
CCn1c(C)nc2cc(-c3nc4n(n3)Cc3ccccc3-4)ccc21 [2-(1-ethyl-2-methyl-5-benzimidazolyl)-5H-[1,2,4]triazolo[5,1-a]isoindole]	11
CCN1CCN(c2cc(C)c3cc(NC(=O)c4ccc(Br)o4)ccc3n2)CC1 [5-bromo-N-[2-(4-ethylpiperazin-1-yl)-4-methylquinolin-6-yl]furan-2-carboxamide]	18.4
Nc1ccc(N=Nc2ccccc2O)c(N)c1 [SMR000476341]	16.1
COc1ccc(CNc2nc3ccccc3s2)cc1OC [SMR000523783]	> 120
NC(=S)c1cn(C2OC(CO)C(O)C2O)c2ncnc(N)c12 (centres undefined) [4-amino-7-[3,4-dihydroxy-5-(hydroxymethyl)oxolan-2-yl]pyrrolo[2,3-d]pyrimidine-5-carbothioamide]	3.48
COC(=O)c1ccccc1NC(=O)N1CCN(C/C=C/c2ccccc2)CC1	8.73
Oc1ccccc1-c1nc(NCCN2CCOCC2)c2ccccc2n1 [(6E)-6-[4-(2-morpholin-4-ylethylamino)-1H-quinazolin-2-ylidene]cyclohexa-2,4-dien-1-one]	14.3
COc1cccc(C(=O)ON=C(N)c2ccccn2)c1 [The compound has not trivial name.]	22.7
COc1ccccc1Nc1oc2cc(=O)ccc-2cc1C(N)=O [2-(2-methoxyanilino)-7-oxo-1-benzopyran-3-carboxamide]	30.9
CCn1c2ccccc2c(=O)c2ccccc21 [10-ethyl-9-acridinone]	16.7
O=C(CCc1ccc(O)cc1)c1c(O)cc(O)cc1O [3-(4-hydroxyphenyl)-1-(2,4,6-trihydroxyphenyl)propan-1-one]	21.4
O=C1c2ccccc2-c2onc3ccc(NCCCn4ccnc4)c1c23 [SMR000044769]	8.03
O=c1ccc2cc3c([nH]c4ccc(Br)cc43)oc-2c1O [9-bromo-4-hydroxy-6H-[1]benzopyrano[2,3-b]indol-3-one]	4.01
CN1CCN(c2ccc(NC(=O)c3ccc(-c4cccc([N+](=O)[O-])c4)o3)cc2)CC1 [N-[4-(4-methylpiperazin-1-yl)phenyl]-5-(3-nitrophenyl)furan-2-carboxamide]	20.2
O=NCc1c(Nc2ccccc2)nc2ccccn2c1=O [(3Z)-3-[(hydroxyamino)methylene]-2-phenylimino-pyrido[1,2-a]pyrimidin-4-one]	6.22
CC(N=Nc1ccnc2cc(Cl)ccc12)c1ccc(O)cc1 (centres undefined) [4-[1-[(7-chloro-4-quinolinyl)hydrazo]ethylidene]-1-cyclohexa-2,5-dienone]	22.9
Cc1ccc2c(c1)/C(=C/c1ccco1)C(=O)N2 [SMR000312107]	38.9
COc1cc(-c2cc(=O)c3c(O)c(OC)c(OC)c(O)c3o2)ccc1O [5,8-dihydroxy-2-(4-hydroxy-3-methoxy-phenyl)-6,7-dimethoxy-chromone]	9.68
CC(C)n1cnc2c(Nc3cccc(Cl)c3)nc(N(CCO)CCCO)nc21	2.86
O=C1N=c2ccccc2=C1NNc1ccc(C(=O)O)cc1 [4-[2-(2-oxidanylideneindol-3-yl)hydrazinyl]benzoic acid]	36.8
OCCN1CCN(c2nc(-c3ccccc3O)nc3ccccc23)CC1 [MLS001165184]	23.1

SMILES	EC50 [µM]
COc1cc(C=C2SC(Nc3ccc(Cl)c(C(=O)O)c3)=NC2=O)c(Br)c(Br)c1O [2-Chloro-5-[5-(2,3-dibromo-4-hydroxy-5-methoxy-benzylidene)-4-oxo-thiazolidin-2-ylideneamino]-benzoic acid]	15.9
CCn1c2ccc(C)cc2c2nc3cc(C(=O)O)ccc3nc21 [6-ethyl-9-methylindolo[2,3-b]quinoxaline-2-carboxylic acid]	17.9
COc1ccc(N=CC2C(=O)Nc3ccccc32)cc1OC (centres undefined)	5.22
COc1ccc(C(=O)NNC(=O)c2ccccn2)cc1	21.8
Cc1cc(C=C2C(=O)c3ccccc3C2=O)c(C)n1-c1cccc(C(=O)O)c1 [3-[3-[[1,3-bis(oxidanylidene)inden-2-ylidene]methyl]-2,5-dimethyl-pyrrol-1-yl]benzoic acid]	> 120
O=C(O)c1cccc(Nc2nc(-c3cccnc3)nc3ccccc23)c1 [SMR000172180]	32.5
O=C(CSc1nc(N2CCCCC2)nc(N2CCCCC2)n1)c1ccccc1 [2-[[4,6-di(piperidin-1-yl)-1,3,5-triazin-2-yl]sulfanyl]-1-phenyl-ethanone]	> 120
O=C(O)c1cc(N=NCc2c(O)ccc3ccccc23)ccc1Cl [MLS001173801]	32.3
COc1ccc(C2=CC3=C(Br)C(=O)C(C)(O)C(=O)C3=CO2)cc1 (centres undefined) [5-bromanyl-3-(4-methoxyphenyl)-7-methyl-7-oxidanyl-isochromene-6,8-dione]	86
Nc1c(O)ccc2c1C(=O)c1ccccc1C2=O [1-amino-2-hydroxy-9,10-anthraquinone]	34.7
Nc1cc(C(=O)O)c(N)c2c1C(=O)c1ccccc1C2=O [1,4-bis(azanyl)-9,10-bis(oxidanylidene)anthracene-2-carboxylic acid]	3.55
N#C/C(=C\c1ccc(O)c(O)c1)C(=O)c1ccc(O)c(O)c1 [(2E)-3-(3,4-dihydroxyphenyl)-2-[(3,4-dihydroxyphenyl)carbonyl]prop-2-enenitrile]	44.9
CCc1ncc(C=C2C(=O)Nc3ccccc32)[nH]1 [3-[(Z)-(2-ethyl-1H-imidazol-5-yl)methylidene]-1H-indol-2-one]	5.25
O=C1C=CC(=CCc2ccnc3ccccc23)C=C1 [MLS000705243]	11.5
C=CC(=O)Nc1ccc(Nc2nc(NC3CCC(N(C)C)CC3)nc3c2ncn3C(C)C)cc1 (centres undefined) [N-[4-[[2-[[4-(dimethylamino)cyclohexyl]amino]-9-propan-2-yl-purin-6-yl]amino]phenyl]prop-2-enamide]	0.883
COc1cc(C=C2SC(N)=NC2=O)ccc1O [(5Z)-2-azanyl-5-[(3-methoxy-4-oxidanyl-phenyl)methylidene]-1,3-thiazol-4-one]	0.936
Cc1cccc(-c2nc3ccccc3c3nncn23)c1 [SMR000106108]	22.5
O=C1Nc2ccccc2C1=Cc1cnc[nH]1 [SMR000180717]	7.94
COC(=O)c1cc(NC(=O)C2COc3ccccc3O2)cc(C(=O)OC)c1 (centres undefined) [dimethyl 5-(2,3-dihydro-1,4-benzodioxin-3-ylcarbonylamino)benzene-1,3-dicarboxylate]	> 120
Nc1nc(-c2cc(O)ccc2[N+](=O)[O-])cc(-c2ccccc2)c1[N+](=O)[O-] [SMR000504332]	< 0.1
Oc1cc(O)cc(/C=C/c2ccc(O)c(O)c2)c1	12.8
Cc1ccc(NC(=S)Nc2ccc3cn[nH]c3c2)c(C)c1	> 120
N#C/C(=C/C=C/c1ccccc1)C(=O)Nc1ccccc1 [2-cyano-N,5-diphenyl-2,4-pentadienamide]	> 120
CC(C)N=C(S)Nc1ccc2c[nH]nc2c1 [SMR000261130]	> 120
